In the NIST ThermoML archive (doi:10.1016/j.tca.2016.05.011):
± gives the expanded uncertainty stated by the source.

Assay: Boiling temperature at pressure P
Conditions: Liquid, DSC

SMILES	Boiling temperature at pressure P (9.9 kPa)	Boiling temperature at pressure P (19.82 kPa)	Boiling temperature at pressure P (29.75 kPa)	Boiling temperature at pressure P (49.63 kPa)	Boiling temperature at pressure P (64.61 kPa)	Boiling temperature at pressure P (29.65 kPa)	Boiling temperature at pressure P (49.44 kPa)	Boiling temperature at pressure P (69.2 kPa)	Boiling temperature at pressure P (101.6 kPa)	Boiling temperature at pressure P (247.5 kPa)
CC(C)(C)c1ccccc1O [2-tert-butyl-1-hydroxybenzene]	145.4 ± 1.6 °C	165.5 ± 2.6 °C	178.6 ± 2.3 °C	196.2 ± 3.1 °C	206.1 ± 3.3 °C	–	–	–	–	–
Cc1ccccc1 [toluene]	–	–	–	–	–	72.4 ± 1.8 °C	87.5 ± 2.5 °C	98.0 ± 2.4 °C	111.2 ± 3.2 °C	145.5 ± 4.5 °C
